Test results as given in patent publication US20230381473A1, “Drug Device Electroporation Angioplasty System” (Hydra Vascular LLC, priority 2014, published 2023).

Assay: Ex vivo energy facilitated drug delivery from coated balloon to arteries in closed flow loop, HPLC quantification
Assay type: in vitro ADME, swine
Details: ex vivo porcine arteries, Trireme Chocolate balloon 6.0×40 coated with paclitaxel:PEG-8000 5:1 at 3.0 ug/mm2, GenePulser II 0.5 kV/1 μF, 3 pulses during about 1 minute expansion, vs same device without voltage
From the text: The energy source to power the device is a pulse generator capable of producing square waves. One commercial example of such a device is the BioRad Gene Pulser II (FIG. 7). The square wave generator produces suitable voltages between the range of 0.001 kV and 5 kV across the membrane. For all prototyping, this device was used to power all of coated catheters by connecting to the wire connection at the proximal catheter end. […] The tissue is then stored in isotonic saline and placed on ice (or 4° C.) for immediate use in an ex-vivo circulatory system.
Ex Vivo Testing Protocol • Fresh PBS is made with pre-measured pellets (1 pellet/100 ml H2O). • Porcine arterial tissue was acquired and cut to length • Arteries are placed in fresh PBS while cleaning of adventitia is performed. • Arteries are attached to the circulation apparatus with cannulas to allow flow through the vessel. […]

enhancement of the transfer of paclitaxel to arteries by application of voltage (factor): 10 ×
SMILES: CC(=O)O[C@H]1C(=O)[C@@]2(C)[C@H]([C@H](OC(=O)c3ccccc3)[C@]3(O)C[C@H](OC(=O)[C@H](O)[C@@H](NC(=O)c4ccccc4)c4ccccc4)C(C)=C1C3(C)C)[C@]1(OC(C)=O)CO[C@@H]1C[C@@H]2O [paclitaxel]
